IC50 data for 4 compounds are collected here from ChEMBL document CHEMBL1145018, “Molecular basis of the antitumor activities of 2-crotonyloxymethyl-2-cycloalkenones” (J Med Chem, 2003).

Type in all cases: functional, cell-based
Experiment [1] concerns B16. The experiment in a line: Tested in vitro growth inhibition against B16 melanotic melanoma cells. The note with it: Mus musculus.
Experiment [2] relates to HT-29. The experiment in a line: Tested for cytotoxicity against HT-29 (MDR)cells. The note with it: Homo sapiens.
The test system of experiment [3] is HT-29. The experiment can be described thus: Tested for cytotoxicity against HT-29 (wt)cells. The note with it: Homo sapiens.

Structures are written as SMILES.

The term IC50 denotes the concentration that inhibits the measured activity by half. A higher IC50 goes with a need for much substance. Turning to `C/C=C/C(=O)OCC1=CCCCC1=O`, the IC50 in experiment [1] was 41 nM; in experiment [2] it was 1800 nM; in experiment [3] it was 800 nM.

In the case of `C/C=C/C(=O)OCC1=CCCC1=O`, in experiment [1], the IC50 worked out at 144 nM.

`C/C=C/C(=O)OCC1=CCCCCC1=O`: the IC50 in experiment [1] turned out to be 29 nM.

`CC[C@]1(O)C[C@H]2CN(CCc3c([nH]c4ccccc34)[C@@](C(=O)OC)(c3cc4c(cc3OC)N(C=O)[C@H]3[C@@](O)(C(=O)OC)[C@H](OC(C)=O)[C@]5(CC)C=CCN6CC[C@]43[C@@H]65)C2)C1` [VINCRISTINE]: the IC50 in experiment [2] amounted to 17 nM; in experiment [3] it was 1 nM.
